Results from patent publication US12636368B2, “Ionizable lipids for nucleic acid delivery” (Global Life Sciences Solutions Canada ULC, priority 2019, dated 2026).
Like-named read-outs stand apart in the source and are kept apart here.

Tests used:
[1] = Nucleic acid encapsulation efficiency by RiboGreen assay; assay type: physicochemical
Protocol: Messenger RNA or plasmid NAT was diluted using sodium acetate buffer to the required concentration. Lipid nucleic acid particle samples were then prepared by running both fluids using the NanoAssemblr® Spark instrument. […] The lipid nucleic acid particles made in the instrument were immediately diluted down with 48 μL Ca and Mg free 1×PBS at pH 7.4 in the aqueous output well. These nucleic acid lipid particles were immediately collected into microcentrifuge tubes containing 96 μL of Ca and Mg free 1×PBS at pH 7.4. Encapsulation efficiency was measured by a modified Ribogreen™ assay (Quanti-iT RiboGreen™ RNA assay kit, Fisher). Observed particle attributes were generally sized from 60-200 nm for mRNA, depending on lipid composition and method of production.
(§1) Physical characteristics of lipid nanoparticle (LNP) compositions comprising compounds according to Formula (I) and that were manufactured on the NanoAssemblr® Spark and Benchtop, are shown in Tables 6 and 7 below. Size, size variation of the LNP (PDI), encapsulation efficiency, and pKa are shown. The physical characteristics of these LNP are important from a standpoint of stability, biodistribution, and cell membrane crossing. There was good encapsulation in all the formulations, with polydispersity (PDI) under 0.3. Size and PDI were measured using dynamic light scattering techniques, and nucleic acid encapsulation efficiency was calculated from a modified Quant-iT RiboGreen RNA assay.

[2] = LNP size and PDI by dynamic light scattering; assay type: physicochemical
Protocol: After the lipid particles were made as described supra, particle size (hydrodynamic diameter of the particles) was determined by Dynamic Light Scattering (DLS) using a ZetaSizer™ Nano ZS™ (Malvern Instruments, UK). He/Ne laser tuned to 633 nm wavelength was used as the light source. Data were measured from the scattered intensity data conducted in backscattering detection mode (measurement angle=173). Measurements were an average of 10 runs of two cycles each per sample. Z-Average size was reported as the particle size, and is defined as the harmonic intensity averaged particle diameter.
as §1

[3] = TNS assay, surface pKa of lipid nanoparticles; assay type: physicochemical
Protocol: In embodiments of the invention, the experimental pKa of formulated lipid nanoparticles comprising lipids in Table 1 is calculated using the 2-(p-toluidinyl)naphthalene-6-sulfonic acid (TNS) assay. The procedure for the TNS assay is described in Example 25.
The pKa of each cationic lipid was determined in lipid nanoparticles using an assay based on fluorescence of 6-(p-Toluidino)-2-naphthalenesulfonic acid sodium salt (TNS, Sigma Aldrich), which is a fluorescent probe for the conformational state of proteins5. Empty lipid nanoparticles comprising ionizable lipid in LM02 composition in distilled water at a concentration of 3.125 mM total lipid are formulated using NanoAssemblr® Spark™, and were then was characterized for LNP quality on the Zetasizer™ using a 30× dilution with 1×PBS in the low volume cuvette. Lipid nanoparticles were further diluted 4× using distilled water to 0.781 mM total lipid. TNS was prepared as a 25 μM stock solution in distilled water. Then 6.4 μL of diluted LNP samples of 0.781 mM total lipid were mixed with 10 μL of diluted TNS to a final volume of 250 μL with buffer containing 10 mM HEPES, 10 mM MES, 10 mM NH4OAc and 130 mM NaCl where the pH ranged from 3 to 9 in 0.5 pH increments.
Samples were mixed thoroughly, and the fluorescence intensity was measured at room temperature in a BioTek™ Synergy™ H1 Hybrid Multi-Mode Monochromator™ Fluorescence Microplate Reader using excitation and emission wavelengths of 321 nm and 445 nm respectively. A sigmoidal best fit analysis was applied to the fluorescence data using GraphPad Prism™ software, and the pKa was measured as the pH at half-maximal fluorescence intensity.

[4] = system: C56BL/6 mice; assay: hEPO expression in mice after i.v. EPO mRNA LNPs; assay type: in vivo
Protocol: C56BL/6 mice were administered i.v doses of 0.5, 1 or 3 mg/Kg of recombinant human EPO-encoded mRNA LNPs containing ionizable lipids MC3, PNI 76, PNI 121 and PNI 127 using the LM02 composition at N/P 6; hEPO protein was measured using Quantikine® IVD® ELISA Human Erythropoietin Immunoassay protocol. Results for the 0.5 mg/Kg dosage are shown in the scatter plot of FIG. 7. Results for the 1 and 3 mg/Kg doses are shown in FIG. 8 as scatter plots of hEPO expression levels at 6 h (left) and 24 h (right).
In another study, 5-moU EPO mRNA encapsulated in LM02 LNP at an N/P ratio of 6 and a dose of 0.5 mg/Kg comprising a variety of […] ionizable lipids (PNI 336, PNI 534, PNI 535, PNI 342, PNI 321, PNI 532, PNI 538, PNI 541, PNI 325, PNI 328, PNI 329, PNI 539, PNI 540, PNI 127); along with MC3 as a control, were administered. hEPO protein was measured using ProteinSimple® Ella platform, and the rhEPO microfluidic cartridges provided by the manufacturer.
Blood from mice treated with hEPO mRNA LNP was analyzed using an automated ELISA platform “ELLA”, using Simplex™ antibody panel cartridges. Human-specific EPO and mouse-specific IL-5, IL-6, TNF-α, and IFN-γ were measured (reagents from Bio-techne). Briefly, 50 μL of sample reagent (diluted biological sample, quality control, or calibration point sample) were aliquoted into each sample inlet, and 1 mL of wash buffer was added into corresponding inlets on the cartridge. All immunoassay operations (including prime system, flow samples and split them into channels, sample incubation, wash, rehydrate and flow secondary antibody, wash, rehydrate and flow streptavidin dye conjugate, incubate, wash, scan) were processed automatically. Raw signal levels (relative fluorescence units, RFUs), mean signal values, standard deviation, and coefficient of variance (CV) for each glass nanoReactor (GNR) value are provided. RFU values are automatically backfit by the ELLA to produce an analyte concentration per analyte/sample using the manufacturer given calibration methodology.
Reagents were acquired from Quantikine, Minneapolis, MN. The assay was performed as directed on the Quantikine® IVD® ELISA Human Erythropoietin Immunoassay protocol REF DEP00 Package Insert. Briefly; Sera samples of 6 h, and/or 24 h post intravenous administration of 0.5, 1 or 3 mg/kg dose of EPO-encoded mRNA were analyzed for EPO expression analysis, and expressed as mIU/mL. To an EPO antibody pre-coated 96-well microplate, provided by the manufacturer, standards, appropriately diluted sera, and the Horseradish peroxidase (HRP)-conjugated rabbit anti-EPO polyclonal antibody and TMB (Tetramethylbenzidine) as the substrate were added and incubated for 20 minutes. Stop solution (Sulfuric Acid) was added to the wells and the plate was read at 450 nm and the concentration of EPO was calculated. The amount of colour generated is directly proportional to the amount of the conjugate bound to EPO antibody, which in turn is directly proportional to the amount of EPO in the specimen or standard. A standard curve was generated by plotting absorbance versus concentration of provided standards. Quantikine® Human Serum Controls (CEP 01, CEP 03) were used for internal controls.

[5] = system: human T cells; assay: eGFP ELISA after eGFP mRNA LNP treatment of human T cells; assay type: cell-based; settings: Table 4; for Fold Change Relative to MC3: eGFP (pg) relative to MC3; for eGFP: quantity of expressed eGFP, eGFP mRNA LNPs, CT10
Protocol: Reagents were acquired from Abcam, Cambridge, UK unless otherwise stated. […] The assay was performed as directed by the eGFP SimpleStep ELISA® Kit protocol. Briefly; frozen human T cells, previously isolated from fresh human whole blood using a negative selection protocol, were thawed and activated using a triple activator. […] After 48 hours of treatment with mRNA LNPs the T cells were harvested and lysed for total eGFP content.
In order to expose the isolated and activated T cells (Day 0) to the formulated mRNA, 2 ug of CleanCap™ eGFP (Trilink Biotechnologies, San Diego, CA) mRNA-containing LNP was added to 500,000 T cells in 1 mL of complete T cell media, with 1 ug/mL of Recombinant Human ApoE4 (“ApoE”) (Peprotech Inc., Montreal, Canada).
Frozen human T cells, previously isolated from fresh human whole blood using a negative selection protocol, were thawed and activated using a triple activator. At 10 days post-activation, T cells were dosed with CT10 mRNA LNPs LNP comprising DLin-MC3-DMA, PNI 76, PNI 119, PNI 120, PNI 121, and PNI 122 encoding eGFP at 2 pg mRNA per 500,000 cells and N/P 10. Protein expression was measured after 48 hours by eGFP ELISA.

[6] = system: isolated primary human T cells; assay: GFP mRNA-LNP transfection of primary human T cells, flow cytometry; assay type: cell-based; settings: for % eGFP +: Table 4, transfection efficiency, eGFP mRNA LNPs, CT10, N/P 8
Protocol: Reagents were from Stemcell Technologies unless otherwise stated. Tcells were isolated from a single donor. At 48 h following lipid particle mRNA exposure, the treated T cells were harvested by transferring the cell suspensions to pre-labeled 1.5 mL tubes and centrifuged 300×g at 4 degrees C. for 10 minutes. Supernatant was removed and the pellet resuspended in PBS. An amount of 0.5 ul of BD Horizon™ Fixable Viability Stain 575V™ (BD Biosciences), was added, and the mixture incubated in the dark for 10 minutes at RT. This stain binds to amines.
The cells were centrifuged again as before, then washed twice with 1 mL of stain buffer (BSA, BD Pharminigen), and the washed pellet was diluted in 100 μl BSA. The following antibodies were added to each tube of treated cells in 2 μl volumes: CD25, CD8, CD4, (PerCP-Cy™ 5.5 Mouse Anti Human CD25, BV786 Mouse Anti-Human CD8 Clone RPA-T8, APC-Cy™7 Mouse Anti-Human CD4 Clone SK3 (all from BD Pharmingen) with the exception of the controls: in the eGFP only sample and viability control, no antibody was added. In the single stain compensation tubes, only one antibody per tube was added.
The tubes were incubated at 4 degrees C. for 30 min, whereupon […] of stain buffer was added, and the cells were centrifuged again. Cells were washed once with 1 mL of stain buffer and spun down again as in step one. Cell pellets were resuspended in 1 mL of stain buffer and added to pre-labeled flow tubes with cell strainer caps (Corning Falcon). […]
GFP MFI was measured by flow cytometry 48 hours after LNP addition. T cells were isolated from whole blood using a negative isolation procedure (EasySep™ Human T Cell Isolation Kit, Stemcell Technologies). T cells were dosed with mRNA-LNPs 3 days after activation with 500 ng of encapsulated mRNA per 125,000 cells. The LNP were CT10 compositions with an N/P of 8. Transfection efficiency (upper graph) and MFI (lower graph) were measured by flow cytometry 48 h after LNP addition.

[7] = system: primary human T cells; assay: EPO ELISA after EPO mRNA LNP treatment of primary human T cells; assay type: cell-based; settings: Table 5; for EPO concentration (mIU/mL): EPO mRNA LNPs, 2 pg mRNA per 500,000 cells, N/P 10, 48 hours
Protocol: Reagents were acquired from Quantikine, Minneapolis, MN. The assay was performed as directed on the Quantikine® IVD® ELISA Human Erythropoietin Immunoassay protocol. REF DEP00 Package Insert. Briefly; primary human T cells were isolated from fresh whole blood using a negative selection protocol and activated using a triple activator. Seven days post-activation, T cells were dosed with mRNA LNPs encoding EPO at 2 pg mRNA per 500,000 cells and N/P 10. Quantikine® Human Serum Controls were used. After 48 hours of treatment with mRNA LNPs the T cells were harvested and lysed for cytosolic EPO and media supernatant was sampled for secreted EPO. Table 5 includes the data of FIG. 6 as well as the fold increase of EPO for PNI 76 and 121 versus MC3.

[8] = Table 6, GFP-encoded LNPs, CT10, N/P 8
[9] = Table 7, EPO mRNA LNPs, LM02, N/P 6
[10] = Table 1, formulated lipid nanoparticles, TNS assay, read-out: Exp. pKa
[11] = Table 4, determined by TNS assay, read-out: pKa Ex.

Encapsulation Efficiency (%) [1, 8]	Encapsulation Efficiency (%) [1, 9]	Diameter (Z. ave, nm) [2, 8]	Polydispersity Index (PDI) [2, 8]	Diameter (Z. ave, nm) [2, 9]	Polydispersity Index (PDI) [2, 9]	pKa [3, 10]	pKa ([3]; Table 8, read-out: Exp.pKa)	pKa [3, 11]	pKa Exp. ([3]; Table 5)	pKa ([3]; Table 5, read-out: pKa Exp.)	Structure (SMILES)	hEPO protein level compared with MC3 ([4]; FIG. 9, 5-moU EPO mRNA, LM02, N/P 6, 0.5 mg/Kg, 6 h)	protein expression in vivo compared with MC3 ([4]; summary, Table 7 and Figures)	Fold Change Relative to MC3 [5]	eGFP [5]	% eGFP + [6]	EPO Fold Change Relative to MC3 [7]	EPO concentration (mIU/mL) [7]	transfection efficiency compared with MC3 ([6]; FIG. 1, eGFP mRNA LNP, CT10, N/P 10, 48 hours after treatment)
93.5%	88.1%	60.6 nm	0.08	65.7 nm	0.05	5.6	5.6				CCCCC/C=C\C/C=C\CCCCCCCC(=O)O[C@@H]1[C@@H](OC(=O)CCCCCCC/C=C\C/C=C\CCCCC)CO[C@@H]1COC(=O)CC1CCCCN1C (mixture of isomers) [PNI 540]	compare well to MC3	equivalent to MC3						
								5.99			CCCCC/C=C\C/C=C\CCCCCCCCC(CCCCCCCC/C=C\C/C=C\CCCCC)OC(=O)CCCN(C)C [MC 3, DLin-MC3-DMA, reference compound]			1	1370.0 pg	58.95%			
88.6%	98.8%	77.2 nm	0.11	65.1 nm	0.04				5.99		CCCCC/C=C\C/C=C\CCCCCCCCC(CCCCCCCC/C=C\C/C=C\CCCCC)OC(=O)CCCN(C)C [MC3, DLin-MC3-DMA, reference compound]						1.0	545.2 mIU/mL	
	88.9%			83.1 nm	0.16	6.42	6.4	6.42		6.42	CCCCCCCCCCCCCC(=O)O[C@H]1COC([C@@H](COC(=O)CCCN(C)C)OC(=O)CCCCCCCCCCCCC)[C@@H]1OC(=O)CCCCCCCCCCCCC (stereo partly drawn) [PNI 76]			1.095	1502.0 pg	62.35%	0.93	507.3 mIU/mL	equal transfection efficiency as MC3
								7.48			CCCCCCCCCCCCCC(=O)O[C@@H]1[C@@H](OC(=O)CCCCCCCCCCCCC)CO[C@@H]1COC(=O)CCCN(C)C [PNI]			0.589	807.0 pg				
